Assay results as given in patent US7498406B2, “Substantially cell membrane impermeable compound and use thereof” (priority 1999, dated 2009).

Legend:
Human bone marrow cells = experiment: 12 day human bone marrow culture assay, granulocyte/macrophage colonies; type: cell-based; conditions: 12 days, 0 to 100 μM
Experimental: FIG. 20. Effect of GSAO on proliferation of bone marrow progenitor cells. Human bone marrow cells were incubated in semi-solid agar containing 20% BGS, 1 ng per mL IL-3 and 0 to 100 μM GSAA or GSAO for 12 days. Granulocyte/macrophage colonies of 40 or more cells were counted under an inverted microscope. The data points and errors represent the mean and SE of quadruplicate cultures.
GSAO reduced the number of granulocyte/macrophage colonies in a 12 day human bone marrow culture assay with an IC50 of ˜30 μM (FIG. 20). […] Human bone marrow cells (˜5×10^5 cells per mL) were added to semi-solid agar in DMEM containing 20% BCS, […] IL-3 and 0 to 100 μM GSAA or GSAO. The cultures were incubated for 12 days at 37° C. and 5% CO2 and clusters of 40 or more cells were counted under an inverted microscope according to Metcalf (1977).

[1] = system: primary HIV isolates (HN11, HN68 or HN70); experiment: Infection of PBMC's by primary HIV isolates, p24 antigen; type: cell-based; conditions: 10 μM, 7 days
Experimental: PBMC's (1×10^6 per mL) were incubated with GSAA or GSAO (10 μM) for 30 minutes at 37° C. and then with primary HIV isolates (HN11, HN68 or HN70 at 50 TCID50 per 10^6 cells) for 2 hours at 37° C. Cells were washed and incubated in complete medium containing GSAA or GSAO (10 μM) at 5% CO2 and 37° C. for up to 7 days. At the indicated times the conditioned medium was collected and assayed for p24 antigen and cell number and cell viability was determined.
The primary HIV isolates, HN11, HN68 and HN70, were provided by Dr. Hassan Naif, Centre for Virus Research, Westmead Millennium Institute, NSW, Australia. […] The blood was diluted 1:2 with PBS, layered onto Ficoll-Hypaque (35 mL blood onto 15 mL Ficoll-Hypaque) in 50 mL Falcon tubes and centrifuged at 400 g for 20 minutes at 20° C. The PBMC's were collected and pelleted at 1200 rpm for 10 minutes to remove platelets, resuspended at 2×10^6 cells per mL in RPMI containing 20% horse serum (Gibco BRL, Gaithersburg, Md.), 10 μg per mL phytohemagglutinin-M (PHA-M, Boehringer Mannheim Biochemica, Mannheim, Germany) and […] interleukin-2 (Sigma, St. Louis, Mo.) and incubated for 2 days at 5% CO2 and 37° C., PBMC (1×10^6 per mL) were incubated with GSAO or GSAA (10 μM) for 30 minutes at 37° C. in serum-free media. Virus was added at 50 TCID50 per 10^6 cells for 2 hours at 37° C.. […]

HMEC-1 or HUVE cells = experiment: GSAO-B labelling of endothelial cell surface proteins; type: cell-based, human; conditions: 100 μM, 30 minutes
Experimental: FIG. 16. Identification of endothelial cell surface proteins that contain closely spaced dithiols). A The surface of HMEC-1 or HUVE cells (2×10^6 cells in 0.4 mL) was labelled with GSAO-B (100 μM) for 30 minutes at room temperature in the absence (lanes 1 and 3) or presence of DMP (400 μM) (lane 2). The endothelial cells were lysed and the lysate from both incubations was resolved on 4-15% SDS-PAGE, transferred to PVDF membrane, and blotted with streptavidin peroxidase to detect the GSAO-B label. The results represent labelling of 3×10^4 HMEC-1 (lanes 1 and 2) of HUVE cells (lane 3). The positions of Mr markers are shown at left. B Densitometry profile of the surface labelled proteins (lanes 1 and 3). The apparent Mr's of the individual proteins are indicated.
Human umbilical vein endothelial cells (HUVEC) (Wall et al., 1978) and the human dermal microvascular endothelial cell line, HMEC-1 (Ades et al., 1992), were harvested and cultured as indicated. Endothelial cells (5×10^6) were detached from culture flasks using 5 mM EDTA in PBS at 37° C., washed 3 times with PBS, resuspended in PBS containing 100 μM of GSAO-B in the absence or presence of 400 μM DMP, and incubated for 30 minutes at room temperature. The cells were washed 3 times with 1 mL of PBS, resuspended in 0.2 mL of ice cold 50 mM Tris/HCl, pH 8 buffer containing 0.5 M NaCl, 1% Triton X-100, 10 μM leupeptin, 2 mM PMSF (Sigma Chemical Company, St, Louis, Mo.), 5 mM EDTA and 10 μM aprotinin (Bayer Australia Ltd., Sydney, NSW), and sonicated on ice. On some occasions the cell lysates were incubated with streptavidin-agarose (Sigma, Castle Hill, NSW) beads (25 μL of packed beads in a total volume of 1 mL) for 60 minutes at 4° C. with rotary mixing. Bound proteins were washed 5 times with 50 mM Tris/HCl, pH 8 buffer containing 0.15 M NaCl and 0.05% Triton X-100, resolved on SDS-PAGE, transferred to PVDF membrane, and the GSAO-B-labeled proteins detected by Western blot.

BAE cells = experiment: Tritiated GSAO in cytosol (membrane permeability); type: in vitro ADME, bovine; conditions: 50 μM GSAO, 1 hour
Experimental: (§1) Human T cells (A3.01) or adherent BAE cells were incubated with complete medium containing 50 μM GSAO and ˜100,000 counts per, minute of tritiated GSAO for 1 or 72 hours. Tritiated GSAO was prepared exactly as described for GSAO except that glycine-2-^3H-glutathione (NEN, Boston, Mass.) was used in place of cold glutathione. The cells were washed and lysed by two cycles of freezing and thawing. The cytosolic constituents were collected by differential centrifugation (Ausbel et al., 2000) and the tritiated GSAO was measured. Only 0.5% of the total tritiated GSAO was found in the T cell cytosol and 0.04% in the BAE cytosol after 1 hour. Moreover, only 4.5% of the GSAO penetrated the T cell membrane after 72 hours of culture.

Human T cells (A3.01) = experiment: Tritiated GSAO in cytosol (membrane permeability); type: in vitro ADME
Experimental: as §1

SMILES	IC50 for reduction of the number of granulocyte/macrophage colonies (Human bone marrow cells)	infection of PBMC's by primary HIV isolates [1]	proteins on the endothelial cell surface that bind the compound (HMEC-1 or HUVE cells)	total tritiated GSAO found in the cytosol (BAE cells) [%]	total tritiated GSAO found in the cytosol (Human T cells (A3.01); 50 μM GSAO, 1 hour) [%]	GSAO that penetrated the T cell membrane (Human T cells (A3.01); 50 μM GSAO, 72 hours of culture) [%]	crossing of the plasma membrane (Human T cells (A3.01); A3.01 or BAE cells)
N[C@@H](CCC(=O)N[C@@H](CSCC(=O)Nc1ccc([As](=O)(O)O)cc1)C(=O)NCC(=O)O)C(=O)O [GSAA, 4-(N-(S-glutathionylacetyl)amino)phenylarsonic acid, reference compound]	no effect on colony numbers						
NC(CCC(=O)NC(CSCC(=O)Nc1ccc([As]=O)cc1)C(=O)NCC(=O)O)C(=O)O (stereo not shown) [GSAO, 4-(N-(S-glutathionylacetyl)amino)-phenylarsenoxide]		blocked infection	ten distinct proteins	0.04	0.5	4.5	does not cross the plasma membrane to any significant extent
